According to PMC6508792, “Arabidopsis MATE45 antagonizes local abscisic acid signaling to mediate development and abiotic stress responses” (Plant Direct, 2018):

Target: T1, MATE45^long (Arabidopsis thaliana, UniProt A0A1L2EGK5)
T1 construct: gene At1g71870; long splice form ORF cloned from wild-type seedling cDNA, in pDEST42, expressed in Escherichia coli acrB
T1 sequence (A0A1L2EGK5 1-510): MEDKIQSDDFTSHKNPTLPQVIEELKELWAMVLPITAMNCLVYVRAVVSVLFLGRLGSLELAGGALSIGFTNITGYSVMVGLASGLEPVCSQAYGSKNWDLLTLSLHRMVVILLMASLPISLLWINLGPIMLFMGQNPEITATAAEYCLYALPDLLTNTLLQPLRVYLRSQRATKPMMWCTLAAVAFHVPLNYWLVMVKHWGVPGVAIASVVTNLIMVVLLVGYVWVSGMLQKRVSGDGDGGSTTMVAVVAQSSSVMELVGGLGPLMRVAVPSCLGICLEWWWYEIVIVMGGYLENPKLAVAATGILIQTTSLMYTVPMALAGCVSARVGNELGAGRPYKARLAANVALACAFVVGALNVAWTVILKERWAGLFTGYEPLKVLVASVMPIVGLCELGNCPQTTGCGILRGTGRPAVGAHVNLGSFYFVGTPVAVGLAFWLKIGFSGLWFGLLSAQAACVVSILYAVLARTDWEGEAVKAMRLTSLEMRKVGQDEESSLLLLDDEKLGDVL
Experiment: uptake into E. coli acrB cells, LC-MS MRM
Format: cell-based
Conditions: 0.5 uM (+)-ABA, 30 min; Venus fluorescent protein as control

Compound: CC1=CC(=O)CC(C)(C)C1(O)/C=C/C(C)=C\C(=O)O (stereo in doubt) [(+)-ABA, (+)‐ABA]
- rate of (+)-ABA uptake: significantly higher rates of ABA uptake into E. coli cells expressing MATE45^long compared to the control
